# Where two headings read alike, the source gives them in different places.
# Tests used:
# male NOD mice [1] = assay: NOD mouse model of Sjogren's syndrome, glycaemia / incidence of diabetes; assay type: in vivo
# Description: Non-Obese Diabetic Mouse (NOD) Model of Sjogren's Syndrome. Male Non Obese Diabetic (NOD) mice from the KWS BioTest NOD colony and male BALB/c mice were randomly allocated to experimental groups and allowed to acclimatise for one week prior to the beginning of the study. From six weeks of age, animals were treated according to the administration schedule in Table 5, below. Each group consisted of n=12 animals. The administration volume was 15 ml/kg from 6-12 weeks of age. The administration volume was then decreased to 10 ml/kg from 13-20 weeks of age. The vehicle was distilled water pH 3.0-3.5 for Group 7. […] Glycaemia. From fourteen weeks of age, animals were monitored weekly for signs of hyperglycaemia. A blood sample was taken from a superficial vein and the blood glucose level was measured using Free Style Optium glucose test strips (Abbott) and a Boots glucose reader. Glycaemia. Blood glucose was monitored once per week from 14 weeks of age. Animals with glycaemia equal to or greater than 11 mM on two consecutive weekly readings were considered diabetic.
# [2] = NOD mouse model of Sjogren's syndrome, bodyweight; assay type: in vivo
# Description: Non-Obese Diabetic Mouse (NOD) Model of Sjogren's Syndrome. Male Non Obese Diabetic (NOD) mice from the KWS BioTest NOD colony and male BALB/c mice were randomly allocated to experimental groups and allowed to acclimatise for one week prior to the beginning of the study. From six weeks of age, animals were treated according to the administration schedule in Table 5, below. Each group consisted of n=12 animals. The administration volume was 15 ml/kg from 6-12 weeks of age. The administration volume was then decreased to 10 ml/kg from 13-20 weeks of age. The vehicle was distilled water pH 3.0-3.5 for Group 7. […] Animals were weighed at the start of the study (Day 0) and once per week until termination. […] Bodyweight data, expressed in grams, were analysed by two-way ANOVA followed by Dunnett's post-test for multiple comparisons to the vehicle-treated group and presented as mean bodyweights for each group (FIG. 12). Bodyweight data, expressed as a percentage of the initial bodyweight, were analysed by two-way ANOVA followed by Dunnett's post-test for multiple comparisons to the vehicle-treated group and presented as mean percentage of the initial bodyweight ±SEM (FIG. 13).
# male NOD mice [3] = assay: NOD mouse model, lachrymal gland histopathology; assay type: in vivo; conditions: 20 weeks of age
# Excerpt: Histopathology. Samples of lachrymal gland and salivary glands from all animals were fixed for Haematoxylin & Eosin histological analysis. Sections were inspected blind by a qualified histopathologist and scored for signs of pathology according to a semi-quantitative scoring system. This system is based on the mean number of inflammatory foci comprising 50 or more mononuclear inflammatory cells per objective field. The ratio of infiltrated to normal glandular tissue was expressed on a five point scale.
# Lachrymal Gland Histopathology. Lachrymal glands from Control BALB/c mice (n=12 mice) and vehicle-treated NOD mice (n=9 mice) were examined and scored, in order to validate the model. For each animal, one section from the right lachrymal gland and one section from the left lachrymal gland were prepared. Sections were examined and scored for two criteria:
# (i) Focus Score. The mean number of inflammatory foci comprising ≧50 mononuclear inflammatory cells per ×10 objective field was counted. Five such fields were assessed (where possible) to derive this index and these are selected to contain the maximum number of such foci. Where the overall area of the tissue section was less than five fields, the number of ×10 objective fields was recorded and used to determine the focus score. (ii) Area Score. […]
# [4] = tested on: semi-established CIA Dba1 mice; assay: Semi-established collagen induced arthritis (CIA) model; assay type: in vivo, mouse; conditions: 3 mg/kg, 10 mg/kg or 30 mg/kg daily
# Description: Semi-Established Collagen Induced Arthritis (CIA) Arthritis Model. Experiments were carried out at Bolder Biopath, Boulder, Colo. All experiments were carried out in compliance with regulations of the Institutional Animal Care and Use Committee and were conducted in accordance with principles and procedures dictated by the highest standards of humane animal care. Dba1 mice were injected at the base of the tail with 150 μL of Freund's Complete Adjuvant (Sigma) containing bovine type II collagen (Elastin Products, Owensville, Mo.) (2 mg/ml) on day 0 and again on day 21. Mice were randomized into treatment groups on study day 21, and treatment was initiated. Treatment continued daily (3 mg/kg, 10 mg/kg or 30 mg/kg QD at 24 hour intervals) through day 33, and mice were terminated on day 33 (animals 1-6) or day 34 (animals 7-12). Onset of arthritis occurred between study days 21 and 34. Clinical scores were assessed for each of the paws on study days 21-34 using the following scoring system: 0=normal, 1=one hind or fore paw joint affected or minimal diffuse erythema and swelling, 2=two hind or fore paw joints affected or mild diffuse erythema and swelling, 3=three hind or fore paw joints affected or moderate diffuse erythema and swelling, 4=marked diffuse erythema and swelling or =four digit joints affected, 5=severe diffuse erythema and severe swelling entire paw, unable to flex digits. Spleens and plasma were harvested at necropsy (day 33 for animals 1-6 and day 34 for animals 7-12) and paws were removed and fixed in formalin for histopathological analysis.
# Solubility = assay type: physicochemical
structure (smiles),measurement,setting,value
"C=CC(=O)Nc1cccc(Nc2nc(Nc3ccc(OCCOC)cc3)ncc2F)c1 [Compound 1 besylate, N-(3-(5-fluoro-2-(4-(2-methoxyethoxyl)phenylamino)pyrimidin-4-ylamino)phenyl)acrylamide besylate]",Incidence of Diabetes,"male NOD mice [1]; 0.16 mg/kg ad libitum, age 18 weeks",8% (1/12)
same,Incidence of Diabetes,"male NOD mice [1]; 0.16 mg/kg ad libitum, age 19 weeks",17% (2/12)
same,Incidence of Diabetes,"male NOD mice [1]; 0.16 mg/kg ad libitum, age 20 weeks",17% (2/12)
same,Incidence of Diabetes,"male NOD mice [1]; 10 mg/kg SID, age 18 weeks",17% (2/12)
same,Incidence of Diabetes,"male NOD mice [1]; 10 mg/kg SID, age 19 weeks",17% (2/12)
same,Incidence of Diabetes,"male NOD mice [1]; 10 mg/kg SID, age 20 weeks",18% (2/11)
same,Incidence of Diabetes,"male NOD mice [1]; 30 mg/kg SID, age 18 weeks",0
same,Incidence of Diabetes,"male NOD mice [1]; 30 mg/kg SID, age 19 weeks",0
same,Incidence of Diabetes,"male NOD mice [1]; 30 mg/kg SID, age 20 weeks",0
same,Incidence of Diabetes,"male NOD mice [1]; 50 mg/kg BID, age 18 weeks",0
same,Incidence of Diabetes,"male NOD mice [1]; 50 mg/kg BID, age 19 weeks",0
same,Incidence of Diabetes,"male NOD mice [1]; 50 mg/kg BID, age 20 weeks",0
same,Incidence of Diabetes,"male NOD mice [1]; 100 mg/kg SID, age 18 weeks",0
same,Incidence of Diabetes,"male NOD mice [1]; 100 mg/kg SID, age 19 weeks",0
same,Incidence of Diabetes,"male NOD mice [1]; 100 mg/kg SID, age 20 weeks",0
same,bodyweight gain (% of initial bodyweight) vs vehicle-treated group,"[2]; 10 mg/kg SID, 8 weeks and 10 to 20 weeks of age",significant reduction in bodyweight gain
same,bodyweight (grams) vs vehicle-treated group,"[2]; 10 mg/kg SID, at 13, 17, 19 and 20 weeks of age",significant decrease in bodyweight
same,bodyweight gain (% of initial bodyweight) vs vehicle-treated group,"[2]; 30 mg/kg SID, 11 to 20 weeks of age",significant reduction in bodyweight gain
same,bodyweight (grams) vs vehicle-treated group,"[2]; 30 mg/kg SID, from 14 to 20 weeks of age",significant decrease in bodyweight
same,bodyweight gain (% of initial bodyweight) vs vehicle-treated group,"[2]; 50 mg/kg twice daily, 10 to 20 weeks of age",significant reduction in bodyweight gain
same,bodyweight (grams) vs vehicle-treated group,"[2]; 50 mg/kg twice daily, from 11 to 20 weeks of age",highly significant decrease in bodyweight
same,bodyweight gain (% of initial bodyweight) vs vehicle-treated group,"[2]; 100 mg/kg SID, 8 weeks and 10 to 20 weeks of age",significant reduction in bodyweight gain
same,bodyweight gain (% of initial bodyweight) vs vehicle-treated group,"[2]; ad libitum 0.16 mg/ml in drinking water, 8 to 20 weeks of age",highly significant reduction in bodyweight gain
same,bodyweight (grams) vs vehicle-treated group,"[2]; ad libitum 0.16 mg/ml in drinking water, 8 weeks and 10 to 20 weeks of age",highly significant decrease in bodyweight
same,lachrymal gland Area Score (proportion of infiltrated glandular tissue) vs vehicle,male NOD mice [3],did not reduce
same,lachrymal gland Focus Score (number of inflammatory foci) vs vehicle,male NOD mice [3],did not reduce
same,effect on clinical parameters of developing type II collagen arthritis,[4],significant beneficial effect
same,solubility,"Solubility; aqueous solution, aqueous buffer, approximately pH 3.0, read-out: maximum aqueous solubility",400 µg/mL
same,solubility,"Solubility; ethanol, organic solvent or mixture, read-out: solubility in ethanol",~10000 µg/mL
same,solubility,"Solubility; water, read-out: solubility in water",~160 µg/mL

# Reference: US20150216865A1, “METHODS OF TREATING A BRUTON'S TYROSINE KINASE DISEASE OR DISORDER” (Celgene Avilomics Research, Inc., priority 2012, published 2015)
